# Measurements as given in patent US20200010482A1, “INHIBITORS OF BETA SECRETASE” (Janssen Pharmaceutica NV, priority 2017, published 2020).
# How the values were obtained:
# β-secretase I (BACE1) = β-secretase I (BACE1) (Homo sapiens, UniProt P56817); assay: Biochemical assay, automated (CyclOps), BACE1; conditions: automated CyclOps bioassay; for IC50: read-out: AUTOMATED ASSAY BACE1 pIC50 (converted)
# Experimental: (§1) Unless otherwise indicated all biochemicals were purchased from Sigma-Aldrich Chemical Company, Poole, Dorset, U.K. and non-aqueous solvents, of analytical or higher grade, were purchased from ThermoFisher Scientific, Loughborough, U.K. MilliQ water (Elix 5 & MilliQ Gradient; Merck Millipore) was used as the base aqueous solvent to make up the biological buffers. Base assay buffer was prepared by adding a 50 mM solution of citric acid (1.00244; Merck Biosciences) to stirring solution of 50 mM trisodium citrate (1.06448; Merck Biosciences) until a final pH of 5.0 was achieved. […] All assays were routinely carried out in 384-well assay plates (Costar 4514; Corning Life Sciences) and incubated at 37±1° C. for 60 min. prior to reading the endpoint fluorescence intensity. The (7-methoxyl coumarin-4-yl)acetic acid based substrate β-secretase substrate VI (M2465; Bachem) was prepared as a 1 mM stock in 100% DMSO (D/4121/PB08; ThermoFisher). Assay buffer was prepared by adding DMSO to base buffer to a final concentration of 1% (vol./vol.). β-secretase I (18.64 μM; “BACE1”) and β-secretase II (4.65 μM; “BACE2”) were obtained from Janssen Pharmaceutica, Beerse, Belgium and were stored as frozen aliquots (˜20 μl) and thawed as required.
# (§2) Typically 12.5 μl of assay buffer was dispensed to rows B to P of the assay plate. To row A was added 18.75 μl of test compound diluted appropriately in assay buffer. A 6.25 μl aliquot of sample was transferred from row A to row B and the sample mixed three times by pipette. The process was repeated down the plate and 6.25 μl of solution discarded at row N post-mix. Rows O and P were designated as the positive and negative controls. To row P was added 6.25 μl base buffer. To rows A to O was added 6.25 μl enzyme (freshly prepared 40 nM BACE1 or 40 nM BACE2) diluted in base buffer. To initiate the assay 6.25 μl of freshly prepared 80 μM substrate, made up by diluting the 1 mM in 100% DMSO solution into HPLC grade water (Optima W6-212; ThermoFisher), was added to all the wells. The assay plate was covered and incubated at 37±1° C. for 60 min. The fluorescence intensity of the wells was read at 360/405 nm (excitation/emission) utilising a nine reads per well protocol (50 ms integration; density of 3, 0.25 mm spacing; SpectraMAX Paradigm plate reader; TUNE cartridge; SoftMax Pro v 6.3 software; Molecular Devices UK Ltd., Wokingham, Berkshire, UK) and outputting the median value of the nine reads as a text file. Data analysis was carried out using Prism software v 6.3 (GraphPad Inc., San Diego, Calif., USA) using the non-linear regression analysis models supplied by the vendor. For IC50 determinations the four parameter logistic variable slope model was used to fit the raw fluorescence intensity data with the ‘bottom’ fixed to the negative control.
# (§3) The CyclOps bioassay module consisted of a fraction collection station, a reagent station, liquid handling robotics, plate store and an integrated plate reader (SpectraMAX Paradigm, TUNE cartridge, SoftMax Pro v 6.3; Molecular Devices). The fraction collection station composed of a 384 well collection plate (P-384-240SQ-C; Axygen, Union City, Calif., USA) mounted on a H-portal carriage (Festo AG & Co. KG, Esslingen, Germany), a syringe drive and a two-way six port injection valve fitted with a 200 μl loop (VICI AG International, Schenkon Switzerland). The output of the injection valve was addressable to all the positions of a 384 well collection plate. The reagent station consisted of hydraulically cooled (10-12° C.) aluminium segments; each manufactured to house a SBS microtiter plate footprint. Independent addressable reagent stations were housed within these sections. Where required, custom aluminium housings were used to accommodate standard laboratory plastic ware (e.g. Eppendorf tubes, Falcon tubes, etc.). As and when required the reagent reservoirs were covered and the lids contained holes through which the Teflon-coated probe could access solutions. […]
# β-secretase II (BACE2) = target: T1, β-secretase II (BACE2) (Homo sapiens, UniProt Q9Y5Z0); assay: Biochemical assay, automated (CyclOps), BACE2; conditions: automated CyclOps bioassay; for IC50: read-out: AUTOMATED ASSAY BACE2 pIC50 (converted)
# T1 sequence (Q9Y5Z0 63-518): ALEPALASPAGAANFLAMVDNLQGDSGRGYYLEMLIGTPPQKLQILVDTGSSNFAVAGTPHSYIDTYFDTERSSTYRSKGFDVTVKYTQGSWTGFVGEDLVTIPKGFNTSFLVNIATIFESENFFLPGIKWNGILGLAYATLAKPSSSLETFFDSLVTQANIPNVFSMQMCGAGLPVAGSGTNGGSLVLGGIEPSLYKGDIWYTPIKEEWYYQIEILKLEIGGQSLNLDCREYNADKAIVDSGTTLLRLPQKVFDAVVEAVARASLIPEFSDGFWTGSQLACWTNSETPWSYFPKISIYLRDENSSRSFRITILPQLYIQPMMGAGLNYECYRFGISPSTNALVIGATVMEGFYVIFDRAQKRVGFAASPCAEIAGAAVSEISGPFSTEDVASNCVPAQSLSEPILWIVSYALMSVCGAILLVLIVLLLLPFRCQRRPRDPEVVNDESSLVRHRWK
# Experimental: as §1, §2, §3
# [1] = tested on: Abeta total produced and secreted by SKNBE2 cells expressing hAPP695; assay: Cellular αLisa assay in SKNBE2 cells, Abeta total; format: cell-based, human; conditions: SKNBE2 cells expressing hAPP695, 18 hours incubation
# Experimental: In two αLisa assays the levels of Abeta total and Abeta 1-42 produced and secreted into the medium of human neuroblastoma SKNBE2 cells are quantified. The assay is based on the human neuroblastoma SKNBE2 expressing the wild type Amyloid Precursor Protein (hAPP695). The compounds are diluted and added to these cells, incubated for 18 hours and then measurements of Abeta 1-42 and Abeta total are taken. Abeta total and Abeta 1-42 are measured by sandwich αLisa. αLisa is a sandwich assay using biotinylated antibody AbN/25 attached to streptavidin coated beads and antibody Ab4G8 or cAb42/26 conjugated acceptor beads for the detection of Abeta total and Abeta 1-42 respectively. In the presence of Abeta total or Abeta 1-42, the beads come into close proximity. The excitation of the donor beads provokes the release of singlet oxygen molecules that trigger a cascade of energy transfer in the acceptor beads, resulting in light emission. Light emission is measured after 1 hour incubation (excitation at […] and emission at 615 nm).
# A best-fit curve is fitted by a minimum sum of squares method to the plot of % Controlmin versus compound concentration. From this an IC50 value (inhibitory concentration causing 50% inhibition of activity) can be obtained. • LC=Median of the low control values=Low control: cells preincubated without compound, without biotinylated Ab in the αLisa • HC=Median of the High control values=High Control: cells preincubated without compound
# % Effect=100−[(sample−LC)/(HC−LC)*100]
# % Control=(sample/HC)*100
# % Controlmin=(sample−LC)/(HC−LC)*100
# β-secretase I (BACE1), sequence (P56817 46-501): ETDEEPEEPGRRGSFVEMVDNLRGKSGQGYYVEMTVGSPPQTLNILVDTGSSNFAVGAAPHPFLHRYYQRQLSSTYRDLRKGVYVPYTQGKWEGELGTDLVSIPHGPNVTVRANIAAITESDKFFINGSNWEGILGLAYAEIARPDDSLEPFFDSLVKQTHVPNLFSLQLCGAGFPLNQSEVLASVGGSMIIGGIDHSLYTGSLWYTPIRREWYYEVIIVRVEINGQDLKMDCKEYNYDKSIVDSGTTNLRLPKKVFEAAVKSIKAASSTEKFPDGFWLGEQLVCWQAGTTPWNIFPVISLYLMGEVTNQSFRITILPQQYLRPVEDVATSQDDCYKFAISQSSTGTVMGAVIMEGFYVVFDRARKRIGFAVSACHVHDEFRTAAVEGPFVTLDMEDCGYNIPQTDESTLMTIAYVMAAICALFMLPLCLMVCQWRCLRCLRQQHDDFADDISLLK
SMILES,AUTOMATED ASSAY BACE1 pIC50 (β-secretase I (BACE1)),AUTOMATED ASSAY BACE2 pIC50 (β-secretase II (BACE2)),IC50 (β-secretase I (BACE1)) [nM],IC50 (β-secretase II (BACE2)) [nM],other results
COc1ncc(-c2ccccc2)c2c1C[C@]1(c3ccc(F)cc3F)N=C(N)SC[C@@H]1C2 [Compound 49],8.6,9.02,,,CELLULAR αLISA ASSAY IN SKNBE2 CELLS ABETA TOTAL pIC50 [1]: 8.75
COc1ncc(C#N)c2c1C[C@]1(c3ccccc3F)N=C(N)SC[C@@H]1C2 (racemic) [Compound 22],,,,,"IC50 ([1]; Homo sapiens, SKNBE2, 18 h, read-out: CELLULAR αLISA ASSAY IN SKNBE2 CELLS ABETA TOTAL pIC50 (converted)): 49 nM"
COC/C=C/c1cnc(OC)c2c1C[C@H]1CSC(N)=N[C@@]1(c1ccc(F)cc1F)C2 [Compound 47],,,9.77,5.89,

# Second part, led by results:
AUTOMATED ASSAY BACE1 pIC50 (β-secretase I (BACE1)),AUTOMATED ASSAY BACE2 pIC50 (β-secretase II (BACE2)),IC50 (β-secretase I (BACE1)) [nM],IC50 (β-secretase II (BACE2)) [nM],SMILES,other results
7.65,6.73,,,COc1ncc(-c2cc(Cl)ccc2C)c2c1C[C@]1(c3ccc(F)cc3F)N=C(N)SC[C@@H]1C2 [Compound 60],
,,4.68,75.9,COc1cc(C)c(-c2cnc(OC)c3c2C[C@H]2CSC(N)=N[C@@]2(c2ccc(F)cc2F)C3)cn1 [Compound 106],
7.77,7.3,,,COc1ncc(-c2ccccc2C)c2c1C[C@]1(c3ccc(F)cc3F)N=C(N)SC[C@@H]1C2 [Compound 55],
